Where “and” joins values, the source holds several entries; their conditions need not be identical. Identical values can stand only once.
Assays:
[1] = Intravenous injection of relaxin, earlier experiments; assay type: in vivo
right atrium = assay: Right atrial rate, isolated spontaneously beating right atrium; set-up: species or system rat; conditions: for right atrial heart rate % Δ, mean (X): mean of experiments; for right atrial heart rate / right atrial heart rate % Δ: single experiment
Description: Krebs-Henseleit solution was prepared with the following composition (in millimoles): NaCl 118; KCl 4.7; MgSO4 1.64; NaHCO3 24.88; KH2 PO4 1.18; d-glucose 11.1; bubbled with 95% O2 /5% CO2; CaCl2 2.52.
Human (H2) relaxin (hRLx-2, 1.5 mg/ml; Genentech) was diluted fresh daily to desired concentrations (500:1; 5000:1; 50000:1) in Krebs-Henseleit solution.
Male Wistar rats (Charles River) weighing 475-525 g each, were anesthetized with sodium pentobarbital (60 mg/kg). After thoracotomy, the heart was removed rapidly and placed in cold (4° C.) Krebs-Henseleit solution until spontaneous contractions ceased. The right and left atria were excised.
Tissue was bathed in an organ chamber holding 42 ml Krebs-Henseleit solution that was aerated with 95% O2 /5% CO2 and heated to 37° C. with a temperature controlled water jacket. Tissue contractions were measured with force-displacement transducers (Grass FT 0.3) and recorded on chart paper (Grass moled 79 polygraph). The rates of contractions were determined with a cardiotachometer (Grass). Electrical stimulation of tissue was induced through bipolar clip electrodes connected to a stimulator through a stimulus isolation unit (Grass model S48).
Stainless steel clips weighing 0.5 g each were attached to each end of the right atrium. One clip was secured to a hook within the organ chamber and the other clip was attached to the force-displacement transducer. The position of the transducer was adjusted to yield 0.5 g resting tension.
In all experiments the atria were allowed to stabilize for 30 minutes prior to addition of drugs. […] Thus, cumulative dose-response curves were generated. At 10 minute intervals, relaxin was added to each organ chamber to obtain bath concentrations of 100 pg/ml, 300 pg/ml, 1 ng/ml, 3 ng/ml, 10 ng/ml and 30 ng/ml.
Measurement of contraction rate and force of contraction following each dose of relaxin were obtained after responses reached a steady state. Rate was determined directly from the output of the cardiotachometer. Force of contraction was measured as the magnitude of the contractile twitches. In order to adjust for variations between tissues, data are expressed as percent changes from pre-drug values, as means±standard errors. Measurements of rate were obtained in seven right atria; measurement of contractile force were obtained in four left atria.

Question: With relaxin as the substance, how does the heart rate [1] read?
Answer: Its heart rate is “small but consistent increase in heart rate”.

Question: What about the “systolic and diastolic pressure” value [1] of the same substance?
Answer: The value was “decrease in systolic and diastolic pressure”.

Question: What about the “right atrial heart rate % Δ, mean (X)” value (right atrium; 100 pg (printed under 30 pg)) of the same substance?
Answer: The value was 0.17%.

Question: And the “right atrial heart rate” value (right atrium; 100 pg)?
Answer: The value was 290 beats/min and 270 beats/min and 300 beats/min and 320 beats/min.

Question: What about the “right atrial heart rate % Δ” value (right atrium; 100 pg, change from pre-drug value) of the same substance?
Answer: The value was 0% and 1%.

Question: And the “right atrial heart rate % Δ, mean (X)” value (right atrium; 300 pg (printed under 100 pg))?
Answer: The value was 3.83%.

Question: What about the “right atrial heart rate” value (right atrium; 300 pg) of the same substance?
Answer: The value was 300 beats/min and 295 beats/min and 310 beats/min and 330 beats/min.

Question: And the “right atrial heart rate % Δ” value (right atrium; 300 pg)?
Answer: Its value is 3% and 9% and 5% and 0%.

Question: What about the “right atrial heart rate % Δ, mean (X)” value (right atrium; 1 ng (printed under 300 pg)) of the same substance?
Answer: The value was 11.67%.

Question: And the “right atrial heart rate” value (right atrium; 1 ng)?
Answer: The value was 320 beats/min and 310 beats/min and 350 beats/min and 345 beats/min.

Question: What about the “right atrial heart rate % Δ, mean (X)” value (right atrium; 3 ng (printed under 1 ng)) of the same substance?
Answer: Its value is 23.33%.

Question: What about the “right atrial heart rate” value (right atrium; 3 ng) of the same substance?
Answer: The value was 345 beats/min and 350 beats/min and 400 beats/min and 360 beats/min and 365 beats/min.

Question: What about the “right atrial heart rate % Δ, mean (X)” value (right atrium; 10 ng (printed under 3 ng)) of the same substance?
Answer: Its value is 32.0%.

Question: And the “right atrial heart rate” value (right atrium; 10 ng)?
Answer: Its value is 345 beats/min and 390 beats/min and 445 beats/min and 370 beats/min and 385 beats/min and 380 beats/min.

Question: And the “right atrial heart rate % Δ, mean (X)” value (right atrium; 30 ng (printed under 10 ng))?
Answer: The value was 36.2%.

Question: And the “average increase in contraction rate” value (right atrium; 30 ng/minute dose)?
Answer: The value was 36%.

Question: And the “right atrial heart rate” value (right atrium; 30 ng)?
Answer: The value was 400 beats/min and 450 beats/min and 385 beats/min and 395 beats/min and 405 beats/min.

Question: And the “point of half maximal increase in contraction rate” value (right atrium; right atrium)?
Answer: Its value is “about 1.8 ng/ml”.

Reference: patent publication US5478807A, “Use of relaxin in the treatment of bradycardia” (Genentech, Inc., priority 1992, dated 1995)
